Source: patent US9447039B2, “Indole carboxamide derivatives and uses thereof” (priority 2012, dated 2016)
≈ marks a conversion by molar mass, not a printed value.

Test system: Mycobacterium tuberculosis H37Rv (ATCC #27294)
Assay: Minimum Inhibitory Concentration (MIC50) determination
Assay type: cell-based
Conditions: 120 h
Experimental: Mycobacterium tuberculosis H37Rv (ATCC #27294) (Mtb) strain was maintained in Middlebrook 7H9 broth medium supplemented with 0.05% Tween 80 and 10% ADS supplement. ADS supplement contains 5% bovine serum albumin fraction V. 2% D-dextrose and 0.8% of sodium chloride. Middlebrook 7H11 agar medium supplemented with 10% OADC (oleic acid, albumin, dextrose and catalase) was used as solid media for growing Mtb. Stock solutions of the compounds were prepared using 90% DMSO.
Minimum Inhibitory Concentration (MIC50) Determination
In Table 5 below, MIC50 is defined as the lowest concentration of the compound that inhibited 50% growth of the wild type strain compared to untreated controls. Test compounds were two or three fold serially diluted in duplicates and spotted by mosquito HTS to 384-well clear plates, resulting in 10 dilutions of each compound. A volume of 50 μl of Mtb culture (final OD600 of 0.02) was added to each well, and the assay plates were incubated at 37° C. for 5 days. Growth of bacteria was measured by reading absorbance at 600 nm using a Spectramax M2 spectrophotometer. MIC50 values were determined by using Activity Base software.

Compound | MIC50
Cc1cc(C)c2cc(C(=O)NC3CCCCC3C#N)[nH]c2c1 (stereo not drawn) [Example 4Q, N-(2-Cyanocyclohexyl)-4,6-dimethyl-1H-indole-2-carboxamide] | 2.06 µM (≈ 0.608 µg/mL)
C[C@H]1CCCC[C@H]1NC(=O)c1cc2c(F)cccc2[nH]1 [Example 4AY, 4-Fluoro-N-((1R,2S)-2-methylcyclohexyl)-1H-indole-2-carboxamide] | 1.83 µM (≈ 0.502 µg/mL)
Cc1cc(N2CCOCC2)cc2[nH]c(C(=O)N[C@@H]3CCCC[C@@H]3C)cc12 [Example 6B, 4-Methyl-N-((1R,2S)-2-methylcyclohexyl)-6-morpholino-1H-indole-2-carboxamide] | 14.2 µM (≈ 5.07 µg/mL)
Cc1cccc2[nH]c(C(=O)N[C@@H]3CCCC[C@@H]3C)cc12 [Example 4AA, 4-Methyl-N-((1R,2S)-2-methylcyclohexyl)-1H-indole-2-carboxamide] | 0.25 µM (≈ 0.0676 µg/mL)
Cc1cc(C)c2cc(C(=O)NC3CCCCC3O)[nH]c2c1 (stereo not drawn) [Example 4L, N-(2-Hydroxycyclohexyl)-4,6-dimethyl-1H-indole-2-carboxamide] | 2.92 µM (≈ 0.837 µg/mL)
O=C(NC1CCC(CF)CC1)c1cc2c(Cl)cc(Cl)cc2[nH]1 (stereo not drawn) [Example 7A, 4,6-Dichloro-N-(4-(fluoromethyl)cyclohexyl)-1H-indole-2-carboxamide] | 0.14 µM (≈ 0.0481 µg/mL)
O=C(NC1CCCCC1)c1cc2c(F)cc(F)cc2[nH]1 [Example 4BB, N-Cyclohexyl-4,6-difluoro-1H-indole-2-carboxamide] | > 20 µM
Cc1cc(C#N)cc2[nH]c(C(=O)N[C@@H]3CCCC[C@@H]3C)cc12 [Example 4AJ, 6-Cyano-4-methyl-N-((1R,2S)-2-methylcyclohexyl)-1H-indole-2-carboxamide] | 0.15 µM (≈ 0.0443 µg/mL)
Cc1cc(C)c2cc(C(=O)Nc3ccccc3C)[nH]c2c1 [Example 3L, 4,6-Dimethyl-N-(o-tolyl)-1H-indole-2-carboxamide] | 3.12 µM (≈ 0.868 µg/mL)
Cc1cc(C)c2cc(C(=O)N[C@@H]3CCC[C@@H](C)[C@@H]3C)[nH]c2c1 [Example 4C, N-((1R,2S,3R)-2,3-Dimethylcyclohexyl)-4,6-dimethyl-1H-indole-2-carboxamide] | 0.03 µM (≈ 0.00895 µg/mL)
CCC(CC)NC(=O)c1cc2c(C)cc(C)cc2[nH]1 [Example 3F, 4,6-Dimethyl-N-(pentan-3-yl)-1H-indole-2-carboxamide] | 4.33 µM (≈ 1.12 µg/mL)
Cc1cc(C)c2cc(C(=O)N[C@@H]3CCC[C@H](C)[C@@H]3C)[nH]c2c1 [Example 4B, N-((1R,2S,3S)-2,3-Dimethylcyclohexyl)-4,6-dimethyl-1H-indole-2-carboxamide] | 0.01 µM (≈ 0.00298 µg/mL)
COc1ccc2[nH]c(C(=O)N[C@@H]3CCCC[C@@H]3C)cc2c1OC [Example 4AN, 4,5-Dimethoxy-N-((1R,2S)-2-methylcyclohexyl)-1H-indole-2-carboxamide] | 1.02 µM (≈ 0.323 µg/mL)
CC1CCC(NC(=O)c2cc3c(Cl)cc(Cl)cc3[nH]2)CC1 (stereo not drawn) [Example 4G, 4,6-Dichloro-N-(4-methylcyclohexyl)-1H-indole-2-carboxamide] | 0.057 µM (≈ 0.0185 µg/mL)
Cc1cc(C)c2cc(C(=O)N[C@H]3CCC[C@@H](C)[C@H]3C)[nH]c2c1 [Example 4I, N-((1S,2R,3R)-2,3-Dimethylcyclohexyl)-4,6-dimethyl-1H-indole-2-carboxamide] | 0.02 µM (≈ 0.00597 µg/mL)
Cc1cc(C)c2cc(C(=O)NC3CCCCC3C(F)(F)F)[nH]c2c1 (stereo not drawn) [Example 4M, 4,6-Dimethyl-N-(2-(trifluoromethyl)cyclohexyl)-1H-indole-2-carboxamide] | 0.585 µM (≈ 0.198 µg/mL)
CCC(C)NC(=O)c1cc2c(C)cc(C)cc2[nH]1 (stereo not drawn) [Example 3M, N-(sec-Butyl)-4,6-dimethyl-1H-indole-2-carboxamide] | 9.33 µM (≈ 2.28 µg/mL)
O=C(NC1CCC(C(F)(F)F)CC1)c1cc2c(F)cc(F)cc2[nH]1 (stereo not drawn) [Example 5B, 4,6-Difluoro-N-(4-(trifluoromethyl)-cyclohexyl)-1H-indole-2-carboxamide] | 1.19 µM (≈ 0.41 µg/mL)
Cc1cc(C)c2cc(C(=O)N[C@H]3CC[C@H](C(C)C)CC3)[nH]c2c1 [Example 4D, N-(trans-4-Isopropylcyclohexyl)-4,6-dimethyl-1H-indole-2-carboxamide] | 0.03 µM (≈ 0.00937 µg/mL)
C[C@H]1CCCC[C@H]1NC(=O)c1cc2c(Br)cccc2[nH]1 [Example 4AB, 4-Bromo-N-((1R,2S)-2-methylcyclohexyl)-1H-indole-2-carboxamide] | 0.29 µM (≈ 0.0972 µg/mL)
Cc1ccc(NC(=O)c2cc3c(C)cc(C)cc3[nH]2)cc1 [Example 3K, 4,6-Dimethyl-N-(p-tolyl)-1H-indole-2-carboxamide] | 5.64 µM (≈ 1.57 µg/mL)
C[C@H]1CC[C@@H](NC(=O)c2cc3c(C#N)cc(C#N)cc3[nH]2)CC1 [Example 4AW, 4,6-Dicyano-N-(cis-4-methyl-cyclohexyl)-1H-indole-2-carboxamide] | > 20 µM
C[C@H]1CC[C@H](NC(=O)c2cc3c(F)cc(F)cc3[nH]2)CC1 [Example 4AU, 4,6-Difluoro-N-(trans-4-methylcyclohexyl)-1H-indole-2-carboxamide] | 0.56 µM (≈ 0.164 µg/mL)

Compound | MIC50
CC1CCC(NC(=O)c2cc3c(Cl)ccc(Cl)c3[nH]2)CC1 (stereo not drawn) [Example 4U, 4,7-Dichloro-N-(4-methylcyclohexyl)-1H-indole-2-carboxamide] | 8.42 µM (≈ 2.74 µg/mL)
Cc1cc(C)c2cc(C(=O)NCC(C)C)[nH]c2c1 [Example 3J, N-Isobutyl-4,6-dimethyl-1H-indole-2-carboxamide] | 11.8 µM (≈ 2.9 µg/mL)
Cc1cc(C)c2cc(C(=O)NC3CCCCCC3)[nH]c2c1 [Example 3G, N-Cycloheptyl-4,6-dimethyl-1H-indole-2-carboxamide] | 0.098 µM (≈ 0.0279 µg/mL)
Cc1cc(C)c2cc(C(=O)NCC3CCCCC3)[nH]c2c1 [Example 3N, N-(Cyclohexylmethyl)-4,6-dimethyl-1H-indole-2-carboxamide] | 0.87 µM (≈ 0.247 µg/mL)
C[C@H]1CCCC[C@H]1NC(=O)c1cc2c(Cl)cc(Cl)cc2[nH]1 [Example 4J, 4,6-Dichloro-N-((1R,2S)-2-methylcyclohexyl)-1H-indole-2-carboxamide] | 0.035 µM (≈ 0.0114 µg/mL)
C[C@H]1CCCC[C@H]1NC(=O)c1cc2c(F)cc(F)cc2[nH]1 [Example 4BA, 4,6-Difluoro-N-((1R,2S)-2-methylcyclohexyl)-1H-indole-2-carboxamide] | 0.28 µM (≈ 0.0819 µg/mL)
C#CC1CCCCC1NC(=O)c1cc2c(Cl)cc(Cl)cc2[nH]1 (stereo not drawn) [Example 4BE, 4,6-Dichloro-N-(2-ethynylcyclohexyl)-1H-indole-2-carboxamide] | 0.22 µM (≈ 0.0738 µg/mL)
Cc1cc(C)c2cc(C(=O)N[C@@H]3CCCC[C@@H]3C)[nH]c2c1 [Example 4A, 4,6-Dimethyl-N-((1R,2S)-2-methylcyclohexyl)-1H-indole-2-carboxamide] | 0.07 µM (≈ 0.0199 µg/mL)
Cc1cc(C#N)c2cc(C(=O)N[C@@H]3CCCC[C@@H]3C)[nH]c2c1 [Example 4AK, 4-Cyano-6-methyl-N-((1R,2S)-2-methylcyclohexyl)-1H-indole-2-carboxamide] | 0.02 µM (≈ 0.00591 µg/mL)
CC1CCC(NC(=O)c2cc3ccc(Cl)c(Cl)c3[nH]2)CC1 (stereo not drawn) [Example 4W, 6,7-Dichloro-N-(4-methylcyclohexyl)-1H-indole-2-carboxamide] | 0.72 µM (≈ 0.234 µg/mL)
CC1CCC(NC(=O)c2cc3c(F)cccc3[nH]2)CC1 (stereo not drawn) [Example 4BG, 4-Fluoro-N-(4-methylcyclohexyl)-1H-indole-2-carboxamide] | 2.13 µM (≈ 0.584 µg/mL)
CC1CCC(NC(=O)c2cc3ccc(F)cc3[nH]2)CC1 (stereo not drawn) [Example 4BF, 6-Fluoro-N-(4-methylcyclohexyl)-1H-indole-2-carboxamide] | 1.62 µM (≈ 0.444 µg/mL)
Cc1cc(C)c2cc(C(=O)NC(C)CCc3ccccc3)[nH]c2c1 (stereo not drawn) [Example 3E, 4,6-Dimethyl-N-(4-phenylbutan-2-yl)-1H-indole-2-carboxamide] | 5.74 µM (≈ 1.84 µg/mL)
Cc1cc(N2CCCCC2)cc2[nH]c(C(=O)N[C@@H]3CCCC[C@@H]3C)cc12 [Example 6C, 4-Methyl-N-((1R,2S)-2-methylcyclohexyl)-6-(piperidin-1-yl)-1H-indole-2-carboxamide] | 5.12 µM (≈ 1.81 µg/mL)
COc1cc(OC)c2cc(C(=O)N[C@@H]3CCCC[C@@H]3C)[nH]c2c1 [Example 4AO, 4,6-Dimethoxy-N-((1R,2S)-2-methylcyclohexyl)-1H-indole-2-carboxamide] | 1.46 µM (≈ 0.462 µg/mL)
Cc1ccc2[nH]c(C(=O)NC3CCCCC3)c(C)c2c1 [Example 4BD, N-cyclohexyl-3,5-dimethyl-1H-indole-2-carboxamide] | 3.51 µM (≈ 0.949 µg/mL)
Cc1cc(NC(C)C)cc2[nH]c(C(=O)N[C@@H]3CCCC[C@@H]3C)cc12 [Example 6E, 6-(Isopropylamino)-4-methyl-N-((1R,2S)-2-methylcyclohexyl)-1H-indole-2-carboxamide] | 2.92 µM (≈ 0.958 µg/mL)
Cc1cc(Nc2ccccc2)cc2[nH]c(C(=O)N[C@@H]3CCCC[C@@H]3C)cc12 [Example 6A, 4-methyl-N-((1R,2S)-2-methylcyclohexyl)-6-(phenylamino)-1H-indole-2-carboxamide] | 0.145 µM (≈ 0.0524 µg/mL)
N#Cc1ccc2cc(C(=O)NC3CCC(F)(F)CC3)[nH]c2c1 [Example 4AG, 6-Cyano-N-(4,4-difluorocyclohexyl)-1H-indole-2-carboxamide] | 3.36 µM (≈ 1.02 µg/mL)
Cc1cc(C)c2cc(C(=O)Nc3ccc(F)cc3)[nH]c2c1 [Example 3C, N-(4-Fluorophenyl)-4,6-dimethyl-1H-indole-2-carboxamide] | 2.45 µM (≈ 0.692 µg/mL)
COc1cccc2[nH]c(C(=O)N[C@@H]3CCCC[C@@H]3C)cc12 [Example 4AL, 4-Methoxy-N-((1R,2S)-2-methylcyclohexyl)-1H-indole-2-carboxamide] | 1.59 µM (≈ 0.455 µg/mL)
C[C@H]1CC[C@H](NC(=O)c2cc3c(C#N)cc(C#N)cc3[nH]2)CC1 [Example 4AV, 4,6-Dicyano-N-(trans-4-methylcyclohexyl)-1H-indole-2-carboxamide] | 0.225 µM (≈ 0.0689 µg/mL)
